In patent publication US10183950B2, “Thienopyrimidine inhibitors of atypical protein kinase C” (Cancer Research Technology Limited, priority 2011, dated 2019) one finds IC50 data, which are given here for 28 molecules.

In this test the target is T1, full-length human PKCι (Homo sapiens, UniProt P41743).
T1 construct: Recombinant, full-length human PKCι expressed in Sf21 insect cells is also commercially available; purchased; host or cells: Sf21 insect cells
T1 sequence (P41743 1-596): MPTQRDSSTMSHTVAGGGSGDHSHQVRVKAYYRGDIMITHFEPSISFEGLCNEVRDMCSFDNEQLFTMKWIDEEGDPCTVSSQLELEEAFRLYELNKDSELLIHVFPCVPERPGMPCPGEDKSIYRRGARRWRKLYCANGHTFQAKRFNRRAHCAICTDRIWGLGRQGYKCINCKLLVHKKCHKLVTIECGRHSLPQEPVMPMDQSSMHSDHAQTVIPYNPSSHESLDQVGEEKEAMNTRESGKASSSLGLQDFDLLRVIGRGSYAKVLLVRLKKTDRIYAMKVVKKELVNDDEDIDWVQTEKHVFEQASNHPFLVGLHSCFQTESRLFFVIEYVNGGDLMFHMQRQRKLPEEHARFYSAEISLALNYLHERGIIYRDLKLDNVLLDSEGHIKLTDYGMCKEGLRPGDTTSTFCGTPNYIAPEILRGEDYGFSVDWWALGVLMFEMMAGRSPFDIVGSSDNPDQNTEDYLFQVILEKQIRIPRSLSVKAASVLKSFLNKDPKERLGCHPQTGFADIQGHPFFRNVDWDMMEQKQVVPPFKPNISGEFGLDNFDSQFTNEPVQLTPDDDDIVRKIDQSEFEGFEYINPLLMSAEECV
The test is described as follows: PKCι IC50 IMAP fluorescence polarisation assay, full-length enzyme. Type of test: biochemical. To be noted: full length PKCi at 15 μM ATP; read-out: IC50 in IMAP assay against full length PKCi. In general terms: In fluorescence polarisation assays a small probe gives low polarisation when free and higher when bound to something large.

As usually defined, the IC50 is the concentration needed to halve the response being measured.

With `N[C@H](CNc1nc(-c2ccncc2)nc2c(C3CC3)csc12)Cc1ccccc1` [compound 413, (S)-N*1*-(7-Cyclopropyl-2-pyridin-4-yl-thieno[3,2-d]pyrimidin-4-yl)-3-phenyl-propane-1,2-diamine], the IC50 is under 0.1 µM.
With `N[C@@H](CNc1nc(-c2ccncc2)nc2c(-c3ccn[nH]3)csc12)Cc1ccccc1` [compound 414, (R)-3-Phenyl-N*1*-[7-(1H-pyrazol-3-yl)-2-pyridin-4-yl-thieno[3,2-d]pyrimidin-4-yl]-propane-1,2-diamine] the figure was 0.1 to 1 µM; with `Cn1ccc(-c2csc3c(NC[C@@H](N)Cc4ccccc4)nc(-c4ccncc4)nc23)n1` [compound 415, (S)-N*1*-[7-(1-Methyl-1H-pyrazol-3-yl)-2-pyridin-4-yl-thieno[3,2-d]pyrimidin-4-yl]-3-phenyl-propane-1,2-diamine], 1 to 10 µM; with `N[C@H](CNc1nc(-c2ccncc2F)nc2c(-c3cc[nH]n3)csc12)Cc1ccccc1` [compound 416, (S)-N*1*-[2-(3-Fluoro-pyridin-4-yl)-7-(1H-pyrazol-3-yl)-thieno[3,2-d]pyrimidin-4-yl]-3-phenyl-propane-1,2-diamine], under 0.1 µM.
Regarding `N[C@H](CNc1nc(-c2ccncc2)nc2c(-c3ccccc3)csc12)Cc1ccccc1` [compound 417, (S)-3-Phenyl-N*1*-(7-phenyl-2-pyridin-4-yl-thieno[3,2-d]pyrimidin-4-yl)-propane-1,2-diamine], the IC50 is 0.1 to 1 µM.
As for `N[C@H](CNc1nc(-c2ccncc2)nc2c(-c3cc(C4CC4)[nH]n3)csc12)Cc1ccccc1` [compound 418, (S)-N*1*-[7-(5-Cyclopropyl-1H-pyrazol-3-yl)-2-pyridin-4-yl-thieno[3,2-d]pyrimidin-4-yl]-3-phenyl-propane-1,2-diamine], the IC50 lay in the range of 0.1 to 1 µM.
With `N[C@H](CNc1nc(-c2ccncc2F)nc2c(-c3ccc[nH]3)csc12)Cc1ccccc1` [compound 419, (S)-N*1*-[2-(3-Fluoro-pyridin-4-yl)-7-(1H-pyrrol-2-yl)-thieno[3,2-d]pyrimidin-4-yl]-3-phenyl-propane-1,2-diamine] the figure was 0.1 to 1 µM; with `N[C@H](CNc1nc(-c2ccncc2F)nc2c(-c3cc[nH]c3)csc12)Cc1ccccc1` [compound 420, (S)-N*1*-[2-(3-Fluoro-pyridin-4-yl)-7-(1H-pyrrol-3-yl)-thieno[3,2-d]pyrimidin-4-yl]-3-phenyl-propane-1,2-diamine], 0.1 to 1 µM.
For `N[C@H](CNc1nc(-c2ccncc2F)nc2c(-c3cc(C(F)(F)F)[nH]n3)csc12)Cc1ccccc1` [compound 421, (S)-N*1*-[2-(3-Fluoro-pyridin-4-yl)-7-(5-trifluoromethyl-2H-pyrazol-3-yl)-thieno[3,2-d]pyrimidin-4-yl]-3-phenyl-propane-1,2-diamine], the IC50 is 1 to 10 µM.
Regarding `Cc1ccccc1-c1csc2c(NC[C@@H](N)Cc3ccccc3)nc(-c3ccncc3F)nc12` [compound 433, (S)-N*1*-[2-(3-Fluoro-pyridin-4-yl)-7-o-tolyl-thieno[3,2-d]pyrimidin-4-yl]-3-phenyl-propane-1,2-diamine], the IC50 was in the range of 1 to 10 µM.
As for `N[C@H](CNc1nc(-c2ccncc2F)nc2c(-c3ccccc3)csc12)Cc1ccccc1` [compound 434, (S)-N*1*-[2-(3-Fluoro-pyridin-4-yl)-7-phenyl-thieno[3,2-d]pyrimidin-4-yl]-3-phenyl-propane-1,2-diamine], the IC50 lay in the range of 1 to 10 µM.
With `NCc1coc(-c2csc3c(NC[C@@H](N)Cc4ccccc4)nc(-c4ccncc4F)nc23)c1` [compound 435, S)-N*1*-[7-(4-Aminomethyl-furan-2-yl)-2-(3-fluoro-pyridin-4-yl)-thieno[3,2-d]pyrimidin-4-yl]-3-phenyl-propane-1,2-diamine] the figure was 1 to 10 µM; with `CC(C)(C)c1sc2c(NC[C@@H](N)Cc3ccccc3)nc(-c3ccncc3)nc2c1-c1cccc(F)c1` [compound 436, (S)-N*1*-[6-tert-Butyl-7-(3-fluoro-phenyl)-2-pyridin-4-yl-thieno[3,2-d]pyrimidin-4-yl]-3-phenyl-propane-1,2-diamine], 10 to 40 µM.
With `CC(C)(C)c1sc2c(NC[C@@H](N)Cc3ccccc3)nc(-c3ccncc3)nc2c1-c1cn[nH]c1` [compound 437, (S)-N*1*-[6-tert-Butyl-7-(1H-pyrazol-4-yl)-2-pyridin-4-yl-thieno[3,2-d]pyrimidin-4-yl]-3-phenyl-propane-1,2-diamine] the figure was 1 to 10 µM.
In the case of `Cc1sc2c(NC[C@@H](N)Cc3ccccc3)nc(-c3ccncc3)nc2c1-c1ccc(F)nc1` [compound 438, (S)-N*1*-[7-(6-Fluoro-pyridin-3-yl)-6-methyl-2-pyridin-4-yl-thieno[3,2-d]pyrimidin-4-yl]-3-phenyl-propane-1,2-diamine], the IC50 lay in the range of 1 to 10 µM.
With `COc1ccncc1-c1c(C)sc2c(NC[C@@H](N)Cc3ccccc3)nc(-c3ccncc3)nc12` [compound 439, (S)-N*1*-[7-(4-Methoxy-pyridin-3-yl)-6-methyl-2-pyridin-4-yl-thieno[3,2-d]pyrimidin-4-yl]-3-phenyl-propane-1,2-diamine] the figure was 10 to 40 µM; with `COc1cccc(OC(C)C)c1-c1c(C)sc2c(NC[C@@H](N)Cc3ccccc3)nc(-c3ccncc3)nc12` [compound 440, (S)-N*1*-[7-(2-Isopropoxy-6-methoxy-phenyl)-6-methyl-2-pyridin-4-yl-thieno[3,2-d]pyrimidin-4-yl]-3-phenyl-propane-1,2-diamine], 10 to 40 µM; with `COc1cccc(-c2c(C(C)(C)C)sc3c(NC[C@@H](N)Cc4ccccc4)nc(-c4ccncc4)nc23)c1` [compound 441, (S)-N*1*-[6-tert-Butyl-7-(3-methoxy-phenyl)-2-pyridin-4-yl-thieno[3,2-d]pyrimidin-4-yl]-3-phenyl-propane-1,2-diamine], 10 to 40 µM.
Take `CC(C)(C)c1sc2c(NC[C@@H](N)Cc3ccccc3)nc(-c3ccncc3)nc2c1-c1ccc(F)cc1` [compound 442, (S)-N*1*-[6-tert-Butyl-7-(4-fluoro-phenyl)-2-pyridin-4-yl-thieno[3,2-d]pyrimidin-4-yl]-3-phenyl-propane-1,2-diamine]: the IC50 is 10 to 40 µM.
With `CC(C)(C)c1sc2c(NC[C@@H](N)Cc3ccccc3)nc(-c3ccncc3)nc2c1-c1ccc(F)nc1` [compound 443, (S)-N*1*-[6-tert-Butyl-7-(6-fluoro-pyridin-3-yl)-2-pyridin-4-yl-thieno[3,2-d]pyrimidin-4-yl]-3-phenyl-propane-1,2-diamine], the IC50 was in the range of 10 to 40 µM.
Under `CC(C)(C)c1sc2c(NC[C@@H](N)Cc3ccccc3)nc(-c3ccncc3)nc2c1-c1cccc(N)c1` [compound 444, (S)-N*1*-[7-(3-Amino-phenyl)-6-tert-butyl-2-pyridin-4-yl-thieno[3,2-d]pyrimidin-4-yl]-3-phenyl-propane-1,2-diamine] stands 10 to 40 µM; under `CC(C)(C)c1sc2c(NC[C@@H](N)Cc3ccccc3)nc(-c3ccncc3)nc2c1-c1ccoc1` [compound 445, (S)-N*1*-(6-tert-Butyl-7-furan-3-yl-2-pyridin-4-yl-thieno[3,2-d]pyrimidin-4-yl)-3-phenyl-propane-1,2-diamine], 10 to 40 µM; under `Cc1sc2c(NC[C@@H](N)Cc3ccccc3)nc(-c3ccncc3)nc2c1-c1cc(F)ccc1OC(C)C` [compound 446, (S)-N*1*-[7-(5-Fluoro-2-isopropoxy-phenyl)-6-methyl-2-pyridin-4-yl-thieno[3,2-d]pyrimidin-4-yl]-3-phenyl-propane-1,2-diamine], 10 to 40 µM.
With `Cc1ccc(-c2c(C(C)(C)C)sc3c(NC[C@@H](N)Cc4ccccc4)nc(-c4ccncc4)nc23)s1` [compound 447, (S)-N*1*-[6-tert-Butyl-7-(5-methyl-thiophen-2-yl)-2-pyridin-4-yl-thieno[3,2-d]pyrimidin-4-yl]-3-phenyl-propane-1,2-diamine] the figure was 1 to 10 µM.
Under `CNc1ccc(-c2c(C(C)(C)C)sc3c(NC[C@@H](N)Cc4ccccc4)nc(-c4ccncc4)nc23)cc1` [compound 448, (S)-N*1*-[6-tert-Butyl-7-(4-methylamino-phenyl)-2-pyridin-4-yl-thieno[3,2-d]pyrimidin-4-yl]-3-phenyl-propane-1,2-diamine] stands 1 to 10 µM.
Turning to `Cc1sc2c(NC[C@@H](N)Cc3ccccc3)nc(-c3ccncc3)nc2c1-c1ccccc1` [compound 449, (S)-N*1*-(6-Methyl-7-phenyl-2-pyridin-4-yl-thieno[3,2-d]pyrimidin-4-yl)-3-phenyl-propane-1,2-diamine], the IC50 is 1 to 10 µM.
On to `COc1ccc(C)cc1-c1c(C)sc2c(NC[C@@H](N)Cc3ccccc3)nc(-c3ccncc3)nc12` [compound 450, (S)-N*1*-[7-(2-Methoxy-5-methyl-phenyl)-6-methyl-2-pyridin-4-yl-thieno[3,2-d]pyrimidin-4-yl]-3-phenyl-propane-1,2-diamine], for which the 50% inhibitory concentration (IC50) is 10 to 40 µM.
Take `CC(C)(C)c1sc2c(NC[C@@H](N)Cc3ccccc3)nc(-c3ccncc3)nc2c1-c1ccccc1` [compound 451, (S)-N*1*-(6-tert-Butyl-7-phenyl-2-pyridin-4-yl-thieno[3,2-d]pyrimidin-4-yl)-3-phenyl-propane-1,2-diamine]: the IC50 fell in the range of 10 to 40 µM.
